Assay: Tacrolimus tissue pharmacokinetics, oral versus intra-cecal ingestible device delivery
Format: in vivo, Yorkshire-Cross farm swine
Details: swine, intra-cecal as compared to oral, 12 hours post-dose
Method: The primary objective of this study was to compare the tissue, plasma, rectal sample, and GI content pharmacokinetics of tacrolimus through oral versus intra-cecal ingestible device delivery in normal Yorkshire-Cross farm swine.
No further randomization procedure was employed.
Animals in Group 1 received an ingestible device containing 0.8 mL of vehicle solution (80% alcohol, 20% HCO-60). Animals in Group 2 received orally […] liquid formulation of tacrolimus at 4 mg/0.8 mL per animal (Prograf: 5 mg/mL). Animals in Group 3 received intra-cecally an ingestible device containing tacrolimus at 1 mg in 0.8 mL per ingestible device. […]
Approximately 200˜400 mg of rectal content were collected, if available, with a fecal swab (Copan Diagnostics Nylon Flocked Dry Swabs, 502CS01). The fecal swab was pre-weighed and weighed after collection in the collection tube (Sterile Tube and Cap No Media, PFPM913S), and the sample weight was recorded. […]
For tissue necropsy, small intestine fluid and cecal fluid were collected separately from all the animals into two separate square plastic bottles, and stored at −20° C. The length and diameter of the cecum and the colon was measured from one animal in each group and recorded for reference. […] All samples were weighed, and the tissue sample weights were recorded. […]

- mean concentration in the cecum tissue and the proximate colon tissue (FIG. 76): higher
Structure (SMILES): C=CC[C@@H]1/C=C(\C)C[C@H](C)C[C@H](OC)[C@H]2O[C@@](O)(C(=O)C(=O)N3CCCC[C@H]3C(=O)O[C@H](/C(C)=C/[C@@H]3CC[C@@H](O)[C@H](OC)C3)[C@H](C)[C@@H](O)CC1=O)[C@H](C)C[C@@H]2OC [tacrolimus]

Reference: patent US20230019619A1, “TREATMENT OF A DISEASE OF THE GASTROINTESTINAL TRACT WITH A TLR MODULATOR” (BIORA THERAPEUTICS, INC., priority 2016, published 2023)
